From ChEMBL document CHEMBL1681651, “A broad spectrum anticancer nucleoside with selective toxicity against human colon cells in vitro” (2011)

Experiments:
Assay type in all cases: functional
[1] = test system: HOP-62; experiment: Growth inhibition of human HOP62 cells assessed as cell growth at 10 uM after 48 hrs by SRB assay; conditions: HOP-62, 48 h, read-out: Activity
[2] = test system: SF-268; experiment: Growth inhibition of human SF268 cells assessed as cell growth at 100 uM after 48 hrs by SRB assay; conditions: SF-268, 48 h, read-out: Activity
[3] = test system: ACHN; experiment: Growth inhibition of human ACHN cells assessed as cell growth at 1 mM after 48 hrs by SRB assay; conditions: read-out: Activity
[4] = test system: ACHN; experiment: Growth inhibition of human ACHN cells assessed as cell growth at 100 uM after 48 hrs by SRB assay; conditions: read-out: Activity
[5] = test system: SF-295; experiment: Growth inhibition of human SF295 cells after 48 hrs by […] growth inhibition assay; conditions: SF-295, 48 h
[6] = test system: SK-OV-3; experiment: Growth inhibition of human SKOV3 cells assessed as cell growth at 10 uM after 48 hrs by SRB assay; conditions: SK-OV-3, 48 h, read-out: Activity
[7] = test system: Malme-3M; experiment: Growth inhibition of human MALME-3M cells after 48 hrs by […] growth inhibition assay
[8] = test system: SN12C; experiment: Growth inhibition of human SN12C cells assessed as cell growth at 1 mM after 48 hrs by SRB assay; conditions: read-out: Activity
[9] = test system: ACHN; experiment: Growth inhibition of human ACHN cells assessed as cell growth at 1 uM after 48 hrs by SRB assay; conditions: read-out: Activity
[10] = test system: HCC 2998; experiment: Growth inhibition of human HCC2998 cells assessed as cell growth at 1 mM after 48 hrs by SRB assay; conditions: HCC 2998, 48 h, read-out: Activity
[11] = test system: HCC 2998; experiment: Growth inhibition of human HCC2998 cells assessed as cell growth at 10 uM after 48 hrs by SRB assay; conditions: HCC 2998, 48 h, read-out: Activity
[12] = test system: OVCAR-8; experiment: Growth inhibition of human OVCAR8 cells assessed as cell growth at 0.1 uM after 48 hrs by SRB assay; conditions: OVCAR-8, 48 h, read-out: Activity
[13] = test system: UO-31; experiment: Growth inhibition of human UO31 cells assessed as cell growth at 1 mM after 48 hrs by SRB assay; conditions: UO-31, 48 h, read-out: Activity
[14] = test system: HOP-92; experiment: Growth inhibition of human HOP92 cells assessed as cell growth at 0.1 uM after 48 hrs by SRB assay; conditions: HOP-92, 48 h, read-out: Activity
[15] = test system: SK-MEL-5; experiment: Growth inhibition of human SK-MEL-5 cells assessed as cell growth at 100 uM after 48 hrs by SRB assay; conditions: SK-MEL-5, 48 h, read-out: Activity
[16] = test system: LOX IMVI; experiment: Growth inhibition of human LOXIMVI cells assessed as cell growth at 1 mM after 48 hrs by SRB assay; conditions: read-out: Activity
[17] = test system: NCI/ADR-RES; experiment: Growth inhibition of human NCI/ADR-RES cells assessed as cell growth at 10 uM after 48 hrs by SRB assay; conditions: read-out: Activity
[18] = test system: HT-29; experiment: Growth inhibition of human HT-29 cells assessed as cell growth at 10 uM after 48 hrs by SRB assay; conditions: HT-29, 48 h, read-out: Activity
[19] = test system: MDA-MB-435; experiment: Growth inhibition of human MDA-MB-435 cells assessed as cell growth at 1 uM after 48 hrs by SRB assay; conditions: MDA-MB-435, 48 h, read-out: Activity
[20] = test system: OVCAR-8; experiment: Growth inhibition of human OVCAR8 cells after 48 hrs by […] growth inhibition assay; conditions: OVCAR-8, 48 h
[21] = test system: NCI-H522; experiment: Growth inhibition of human NCI-H522 cells assessed as cell growth at 10 uM after 48 hrs by SRB assay; conditions: NCI-H522, 48 h, read-out: Activity
[22] = test system: UO-31; experiment: Growth inhibition of human UO31 cells assessed as cell growth at 0.1 uM after 48 hrs by SRB assay; conditions: UO-31, 48 h, read-out: Activity
[23] = Growth inhibition of human […] cells after 48 hrs by […] growth inhibition assay
[24] = test system: U-251; experiment: Growth inhibition of human U251 cells assessed as cell growth at 1 uM after 48 hrs by SRB assay; conditions: U-251, 48 h, read-out: Activity
[25] = test system: RXF 393; experiment: Growth inhibition of human RXF393 cells assessed as cell growth at 1 uM after 48 hrs by SRB assay; conditions: RXF 393, 48 h, read-out: Activity
[26] = test system: MDA-MB-435; experiment: Growth inhibition of human MDA-MB-435 cells assessed as cell growth at 10 uM after 48 hrs by SRB assay; conditions: MDA-MB-435, 48 h, read-out: Activity
[27] = test system: NCI/ADR-RES; experiment: Growth inhibition of human NCI/ADR-RES cells after 48 hrs by SRB assay
[28] = test system: SK-OV-3; experiment: Growth inhibition of human SKOV3 cells assessed as cell growth at 1 uM after 48 hrs by SRB assay; conditions: SK-OV-3, 48 h, read-out: Activity
[29] = test system: SK-MEL-5; experiment: Growth inhibition of human SK-MEL-5 cells assessed as cell growth at 1 uM after 48 hrs by SRB assay; conditions: SK-MEL-5, 48 h, read-out: Activity
[30] = test system: SNB-19; experiment: Growth inhibition of human SNB19 cells assessed as cell growth at 0.1 uM after 48 hrs by SRB assay; conditions: SNB-19, 48 h, read-out: Activity
[31] = test system: IGROV-1; experiment: Growth inhibition of human IGROV1 cells assessed as cell growth at 1 mM after 48 hrs by SRB assay; conditions: IGROV-1, 48 h, read-out: Activity
[32] = test system: UACC-257; experiment: Growth inhibition of human UACC257 cells assessed as cell growth at 1 uM after 48 hrs by SRB assay; conditions: UACC-257, 48 h, read-out: Activity
[33] = test system: SNB-19; experiment: Growth inhibition of human SNB19 cells assessed as cell growth at 10 uM after 48 hrs by SRB assay; conditions: SNB-19, 48 h, read-out: Activity
[34] = test system: KM12; experiment: Growth inhibition of human KM12 cells assessed as cell growth at 1 mM after 48 hrs by SRB assay; conditions: KM12, 48 h, read-out: Activity
[35] = test system: MDA-MB-435; experiment: Growth inhibition of human MDA-MB-435 cells after 48 hrs by SRB assay; conditions: MDA-MB-435, 48 h
[36] = read-out: LC50 (the source's name)
[37] = read-out: pLC50 (the source's name) (converted)

CNC(=O)NC[C@H]1O[C@@H](n2cnc3c(NC(=O)Nc4ccccc4)ncnc32)[C@H](O[Si](C)(C)C(C)(C)C)[C@@H]1CC(=O)N(C)OC
growth at 10 µM [1]: 86%
growth at 100 µM [2]: 46%
growth at 1000 µM [3]: 23%
growth at 100 µM [4]: 55%
GI50 ([5]; read-out: GI50): 9.09 µM
LC50 ([5]; read-out: LC50): 16.4 µM
TGI ([5]; read-out: TGI): > 100 µM
GI50 ([5]; read-out: pGI50 (converted)): 9.12 µM
LC50 ([5]; read-out: pLC50 (converted)): > 100 µM
TGI ([5]; read-out: pTGI (converted)): > 100 µM
growth at 10 µM [6]: 95%
GI50 ([7]; read-out: GI50): 11.4 µM
LC50 (concentration killing 50% of cells) ([7]; read-out: LC50): > 100 µM
TGI ([7]; read-out: TGI): > 100 µM
GI50 ([7]; read-out: pGI50 (converted)): 11.5 µM
LC50 (concentration killing 50% of cells) ([7]; read-out: pLC50 (converted)): > 100 µM
TGI ([7]; read-out: pTGI (converted)): > 100 µM
growth at 1000 µM [8]: 49%
growth at 1 µM [9]: 102%
growth at 1000 µM [10]: 33%
growth at 10 µM [11]: 100%
growth at 0.1 µM [12]: 107%
growth at 1000 µM [13]: 32%
growth at 0.1 µM [14]: 80%
growth at 100 µM [15]: 38%
growth at 1000 µM [16]: 35%
growth at 10 µM [17]: 105%
growth at 10 µM [18]: 100%
growth at 1 µM [19]: 97%
GI50 ([20]; read-out: GI50): 9.02 µM
CC50 [20, 36]: > 100 µM
TGI ([20]; read-out: TGI): > 100 µM
GI50 ([20]; read-out: pGI50 (converted)): 9.12 µM
CC50 [20, 37]: > 100 µM
TGI ([20]; read-out: pTGI (converted)): > 100 µM
growth at 10 µM [21]: 84%
growth at 0.1 µM [22]: 89%
GI50 ([23]; read-out: GI50): 1.58 µM
CC50 [23, 36]: > 100 µM
TGI ([23]; read-out: TGI): 5.4 µM
GI50 ([23]; read-out: pGI50 (converted)): 1.58 µM
CC50 [23, 37]: > 100 µM
TGI ([23]; read-out: pTGI (converted)): 5.37 µM
growth at 1 µM [24]: 101%
growth at 1 µM [25]: 100%
growth at 10 µM [26]: 98%
GI50 ([27]; read-out: GI50): > 100 µM
CC50 [27, 36]: > 100 µM
TGI ([27]; read-out: TGI): > 100 µM
GI50 ([27]; read-out: pGI50 (converted)): > 100 µM
CC50 [27, 37]: > 100 µM
TGI ([27]; read-out: pTGI (converted)): > 100 µM
growth at 1 µM [28]: 97%
growth at 1 µM [29]: 98%
growth at 0.1 µM [30]: 94%
growth at 1000 µM [31]: -6%
growth at 1 µM [32]: 103%
growth at 10 µM [33]: 83%
growth at 1000 µM [34]: 30%
GI50 ([35]; read-out: GI50): 10.9 µM
LC50 ([35]; read-out: LC50): > 100 µM
TGI ([35]; read-out: TGI): > 100 µM
GI50 ([35]; read-out: pGI50 (converted)): 11 µM
LC50 ([35]; read-out: pLC50 (converted)): > 100 µM
TGI ([35]; read-out: pTGI (converted)): > 100 µM
